Data on 17 compounds can be found in ChEMBL document CHEMBL5500331, “Discovery of novel peptide-dehydroepiandrosterone hybrids inducing endoplasmic reticulum stress with effective in vitro and in vivo anti-melanoma activities” (Eur J Med Chem, 2024).

Active and inactive are the calls of the source. No cut-off for these calls is given here. A value given as a limit tells only on which side of the number the result lay.

Data set [1] is described as follows: Antiproliferative activity against human Prostate tumor cell line at 25 uM measured after 48 hrs by MTT assay relative to control. The format is functional. Background: Tetrazolium dyes change colour on reduction, which living cells bring about.
The test system of another data set is DU-145. Put plainly: Antiproliferative activity against human DU-145 cells at 25 uM measured after 48 hrs by MTT assay. The format is functional, cell-based.
In data set [2] the test system is B16. Put plainly: Anti-melanoma activity against mouse B16 cells xenografted in Kunming mouse model assessed as inhibition of tumor weight at 60 mg/kg, IG measured every two days for 27 days relative to control. The format is functional. More on the design: scale not given: the % may be the effect or the level left. Conditions: time 27 day.
Data set [3] concerns B16. Put plainly: Antiproliferative activity against mouse B16 cells measured after 48 hrs by MTT assay. The format is functional, cell-based. Conditions: B16, 48 h.
For another data set, the system named is PC-3. Put plainly: Antiproliferative activity against human PC-3 cells at 25 uM measured after 48 hrs by MTT assay. The format is functional, cell-based.
The nature of data set [4]: Toxicity in Kunming mouse assessed as effect on body weight at 60 mg/kg, IG measured after 21 days. The format is organism-based. Conditions: in vivo, po, 504 h, time 21 day.
Data set [5] concerns B16. Put plainly: Anti-melanoma activity against mouse B16 cells xenografted in Kunming mouse model assessed as reduction in tumor volume at 60 mg/kg, IG measured after 7 to 27 days. Conditions: time 7-27 day. The format is functional, organism-based.
Data set [6] concerns B16. Put plainly: Anti-melanoma activity against mouse B16 cells xenografted in Kunming mouse model assessed as reduction in tumor volume at 60 mg/kg, IG measured after 5 days. The format is functional, organism-based. The conditions noted are these: time 5.0 day.
The subject of data set [7] is B16. Briefly: Anti-melanoma activity against mouse B16 cells xenografted in Kunming mouse model assessed as suppression of tumor weight at 60 mg/kg, IG measured every two days for 27 days (reference value: 10.61+/-1.05g). Conditions: time 27 day. The format is functional.
In data set [8] the test system is B16. Put plainly: Upregulation of caspase 3 expression in mouse B16 cells at 9.70 uM measured after 48 hrs by Western blot analysis. The format is functional, cell-based. The conditions noted are these: dose 9.7 µM. In general terms: A western blot detects proteins with antibodies after separation by electrophoresis.
Data set [9] relates to B16. Briefly: Upregulation of caspase 8 expression in mouse B16 cells at 9.70 uM measured after 48 hrs by Western blot analysis. The format is functional, cell-based. The conditions noted are these: dose 9.7 µM.
Data set [10] concerns B16. Put plainly: Effect on Bcl-2 expression in mouse B16 cells at 9.70 uM measured after 48 hrs by Western blot analysis. The format is functional, cell-based. Conditions: dose 9.7 µM.
In data set [11] the test system is B16. Briefly: Upregulation of […] expression in mouse B16 cells at 9.70 uM measured after 48 hrs by Western blot analysis. The format is functional, cell-based. Conditions: dose 9.7 µM.
A further data set deals with BGC-823. Briefly: Antiproliferative activity against human BGC-823 cells at 25 uM measured after 48 hrs by MTT assay relative to control. The format is functional.
The test system of a further data set is HCT-116. Briefly: Antiproliferative activity against human HCT-116 cells at 25 uM measured after 48 hrs by MTT assay relative to control. The format is functional.
The subject of data set [12] is B16. Put plainly: Antiproliferative activity against mouse B16 cells at 25 uM measured after 48 hrs by MTT assay relative to control. The format is functional.

What is called IC50 is the midpoint of a concentration-inhibition curve. With `C[C@]12CC[C@H](O)CC1=CC[C@@H]1[C@@H]2CC[C@]2(C)C(c3cccnc3)=CC[C@@H]12` [ABIRATERONE], the Activity in [1] is 69.3%; in the data set on B16 [2] it was 17.93%; in data set [4] it was “Toxic”; in the data set on B16 [7], 8.7 g. Also, the outcome with DU-145, with PC-3 and in the data set on B16 [6] was Active. The compound also gave an IC50 with B16 [3] of 106 µM. The result in the data set with B16 [5] was inactive.
Compound `C[C@]12CC[C@H](OC(=O)[C@@H]3CCCN3C(=O)CN)CC1=CC[C@@H]1[C@@H]2CC[C@]2(C)C(c3cccnc3)=CC[C@@H]12` yielded an IC50 with B16 [3] greater than 1000 µM.
In turn, `CC(C)[C@H](N)C(=O)N[C@H](C(=O)O[C@H]1CC[C@@]2(C)C(=CC[C@@H]3[C@@H]2CC[C@]2(C)C(O)=CC[C@@H]32)C1)C(C)C` displayed an IC50 with B16 [3] of 23.6 µM.
Still for that read-out and setting: next, `CC(C)[C@H](N)C(=O)NCC(=O)O[C@H]1CC[C@@]2(C)C(=CC[C@@H]3[C@@H]2CC[C@]2(C)C(c4cccnc4)=CC[C@@H]32)C1`: 13.4 µM; `C[C@]12CC[C@H](OC(=O)CN)CC1=CC[C@@H]1[C@@H]2CC[C@]2(C)C(c3cccnc3)=CC[C@@H]12`: 221 µM; `CC(C)[C@H](NC(=O)CN)C(=O)O[C@H]1CC[C@@]2(C)C(=CC[C@@H]3[C@@H]2CC[C@]2(C)C(O)=CC[C@@H]32)C1`: 16.5 µM.
In the data set with B16 [3], `COc1ccc(C2=CC[C@H]3[C@@H]4CC=C5C[C@@H](OC(C)=O)CC[C@]5(C)[C@H]4CC[C@]23C)cn1` yielded an IC50 greater than 1000 µM.
In the data set on B16 [3], `CC(C)[C@H](NC(=O)CN)C(=O)O[C@H]1CC[C@@]2(C)C(=CC[C@@H]3[C@@H]2CC[C@]2(C)C(c4cnccc4Cl)=CC[C@@H]32)C1` showed an IC50 of 3.78 µM.
In the data set with B16 [3], `C[C@]12CC[C@H](OC(=O)CNC(=O)CN)CC1=CC[C@@H]1[C@@H]2CC[C@]2(C)C(c3cccnc3)=CC[C@@H]12` registered an IC50 of 177 µM.
In the data set with B16 [3], `CC(C)C[C@H](N)C(=O)O[C@H]1CC[C@@]2(C)C(=CC[C@@H]3[C@@H]2CC[C@]2(C)C(O)=CC[C@@H]32)C1` showed an IC50 greater than 1000 µM.
As to `C[C@]12CC[C@H](O)CC1=CC[C@@H]1[C@@H]2CC[C@]2(C)C(c3ccc(Cl)nc3)=CC[C@@H]12`, the IC50 with B16 [3] came out at 113 µM.
`CC(C)[C@H](NC(=O)CN)C(=O)O[C@H]1CC[C@@]2(C)C(=CC[C@@H]3[C@@H]2CC[C@]2(C)C(c4ccc(F)nc4)=CC[C@@H]32)C1` had an IC50 with B16 [3] of 3.16 µM.
`CC(C)C[C@H](NC(=O)CN)C(=O)O[C@H]1CC[C@@]2(C)C(=CC[C@@H]3[C@@H]2CC[C@]2(C)C(c4cccnc4)=CC[C@@H]32)C1`: the result in the data set with B16 [8], with B16 [9] and in the data set on B16 [11] was Active. In the data set with B16 [3], this compound registered an IC50 of 30.5 µM. Also, in the data set on B16 [10], the result was inactive.
The compound `C[C@]12CC[C@H](O)CC1=CC[C@@H]1[C@@H]2CC[C@]2(C)C(c3ccc(F)nc3)=CC[C@@H]12` gave an IC50 with B16 [3] of 56.4 µM.
On the same count and under the same terms, next, `CC(=O)O[C@H]1CC[C@@]2(C)C(=CC[C@@H]3[C@@H]2CC[C@]2(C)C(c4ccc(Cl)nc4)=CC[C@@H]32)C1`: greater than 1000 µM; `C[C@]12CC[C@H](OC(=O)CN)CC1=CC[C@@H]1[C@@H]2CC[C@]2(C)C(O)=CC[C@@H]12`: 71.6 µM.
Consider `CC(C)[C@H](N)C(=O)N[C@@H](C)C(=O)O[C@H]1CC[C@@]2(C)C(=CC[C@@H]3[C@@H]2CC[C@]2(C)C(O)=CC[C@@H]32)C1`, for which the Activity in the data set with BGC-823 came to 81.6%; in the data set on HCT-116, 66%; in the data set with B16 [12], 83.7%.
